Tests used:
Assay type in all cases: cell-based
[1] = system: Pseudomonas aeruginosa ATCC # 15442; experiment: HRMIC synergy test, gram negative bacteria; conditions: Ps. aeruginosa, contact time 24 hrs, biocide alone
Protocol: (§1) The combinations were evaluated for synergy by determining the synergy index (S.I.) of the combination. The Synergy index calculated is based on minimum inhibitory concentrations (MIC) of two biocides (A and B) alone and in combinations. The lower the S.I. value, the better the synergy. High Resolution Minimum Inhibitory Concentration (HRMIC) method was performed to determine the potential for synergy of the combinations. The tests organisms were gram negative bacteria (Pseudomonas aeruginosa), Gram positive bacteria (Staphylococcus aureus), yeast (Candida albicans) and mold (Aspergillus niger). Contact time for the bacteria was 24 and 48 hours, yeast was 48 and 72 hrs, 3 and 7 days for mold. The test was carried out in 96well microtiter plates. […] Ca/CA+Cb/CB=Synergy Index(“SI”) • CA=concentration of compound A in ppm, acting alone, which produced an end point (MIC of Compound A). • Ca=concentration of compound A in ppm, in the mixture, which produced an end point. • CB=concentration of compound B in ppm, acting alone, which produced an end point (MIC of Compound B). • Cb=concentration of compound B in ppm, in the mixture, which produced an end point. When the sum of Ca/CA and Cb/CB is greater than one, antagonism is indicated. […] [table] [table]

[2] = system: Staphylococcus aureus ATCC# 6538; experiment: HRMIC synergy test, Gram positive bacteria; conditions: S. aureus, biocide alone
Protocol: as §1

[3] = system: Aspergillus niger ATCC# 16404; experiment: HRMIC synergy test, mold; conditions: A. niger, biocide alone
Protocol: as §1

[4] = system: Candida albicans ATCC#10203; experiment: HRMIC synergy test, yeast; conditions: C. albicans, biocide alone
Protocol: as §1

Cc1ccc(S(=O)(=O)C(I)I)cc1 [DIMTS, diiodomethyl-p-tolylsulfone]
MIC alone (CA / CB) [1]: >1000 ppm AI | MIC alone (CA / CB) ([2]; contact time 24 hrs): 30 ppm AI | MIC alone (CA / CB) ([2]; contact time 48 hrs): 400 ppm AI | MIC alone (CA / CB) ([3]; contact time 3rd day): 0.3 ppm AI | MIC alone (CA / CB) ([3]; contact time 7th day): 0.5 ppm AI | MIC alone (CA / CB) ([4]; contact time 48 hrs): 20 ppm AI | MIC alone (CA / CB) ([4]; contact time 72 hrs): 30 ppm AI

Reference: patent US20140147410A1, “MICROBICIDE COMBINATIONS CONTAINING SILVER” (priority 2011, published 2014)
